Experimental data reported in PubChem BioAssay AID2060889 (Molecular Pharmacology Branch, DTP, NCI, 2025).
Each block holds one compound with its values, some of them ahead of it.

Test system: LG0567-F671-PDC complex spheroids viability
Assay: Anticancer human tumor LG0567-F671-PDC patient-derived lung adenocarcinoma cell line growth inhibition [RAS]
Settings: for viability, T/C: stronger effect = lower value
Source text: RAS pathway inhibitors in Combinations in Complex Spheroids
A high-throughput screen of multi-cell type tumor spheroids was designed to identify active combinations of RAS pathway inhibitors and targeted small molecules. Complex spheroids include a stromal component modeled by human endothelial cells (HUVEC) and fibroblasts modeled by human mesenchymal stem cells (MSCs). The concentration ranges selected for each drug and investigational agent were based upon clinically achievable concentrations if the clinical Cmax of the agent was known.
Compounds. The drugs and investigational agents: abemaciclib (NSC768073), cobimetinib (NSC768068), divarasib (GDC6063, NSC841802), docetaxel (NSC628503), GDC-1971 (RLY-1971, NSC841576), gemcitabine (NSC613327), inavolisib (NSC800729), ipatasertib (NSC767898), KB-0742 (NSC834161), MRTX-1133 (NSC836407), osimertinib (NSC779217), RMC-4630 (NSC839698), RMC-6236 (NSC851965), RMC-6291 (NSC852671), Ro-3306 (NSC812927), sapanisertib (NSC764658), SN-38 (NSC673596), staurosporine (NSC755774), SY5609 (NSC837396), and tovorafenib (DAY101, NSC766906), were obtained from the National Cancer Institute (NCI) Developmental Therapeutics Program Chemical Repository. The FDA-approved anticancer drug set is available from the NCI Developmental Therapeutics Program. […] The stock solutions were prepared in dimethyl sulfoxide (DMSO, Sigma-Aldrich, St. Louis, MO, cat. D2650) at 800-fold the tested concentration and stored at -70 degrees C prior to their use. All drugs and investigational agents were tested over a range starting from a high concentration at or near the clinical Cmax and decreasing in half-log increments. If the clinical Cmax for an agent had not been determined, the highest concentration tested was 10 microM.
Cell Culture. All cells were maintained in an incubator at 37 degrees C and 5% CO2 with 95% humidity. The PDC lines were cultured according to standard operating procedures established by the NCI PDMR. All PDCs were thawed and cultured in Matrigel-coated flasks prepared with a working solution of 1X Ham's F-12 nutrient mix, without supplementation (Invitrogen, Waltham, MA, cat. 11765054), 100 U/mL penicillin-streptomycin (Invitrogen, cat. 15140122), and 2.5% Matrigel (Corning Inc., Corning, NY, cat. 354248) for the first three passages. The 362531-283-R-J2-PDC and 782815-120-R-J1-PDC lines were cultured in 6C/Colon 1B media, which includes advanced DMEM/F-12 (Thermo Fisher Scientific, cat. 12634028), 10 mM HEPES (Thermo Fisher Scientific, cat. 15630080), 1X GlutaMAX supplement (Thermo Fisher Scientific, cat. 35050061), 0.1 mg/mL primocin (InvivoGen, San Diego, CA, cat. ant-pm-2), 10% defined fetal bovine serum, heat inactivated (HyClone Laboratories Inc., Logan, UT, cat. SH30070.03HI), 50% L-WRN conditioned media (ATCC, cat. CRL-3276), 1.25 mM N-Acetyl-L-cysteine (Sigma-Aldrich, cat. A9165), 10 mM nicotinamide (Sigma-Aldrich, cat. N0636), 1X B-27 supplement (Thermo Fisher Scientific, cat. 17504044), 1X N-2 supplement (Thermo Fisher Scientific, cat. 17502048), 50 ng/mL human EGF (Thermo Fisher Scientific, cat. PHG0311), and 10 microM Y-27632 dihydrochloride (Tocris Bioscience, cat. 1254). The K12877-001-R-J1-PDC line was cultured in 6I media, which includes all 6C/Colon 1B media plus 10 ng/mL human FGF-10 (PeproTech, cat. 100-26), 1 ng/mL human FGF-2 (PeproTech, cat. 100-18B), 1 µM prostaglandin E2 (Tocris Bioscience, cat. 2296), […] hydrocortisone (Sigma-Aldrich, cat. H4001), and […] bovine insulin (Sigma-Aldrich, cat. I6634). The K86415-001-R-J1-PDC line was cultured in 6D media, which includes all 6C/Colon 1B media components minus the L-WRN conditioned media. The 485176-168-R4-J1-PDC was cultured in PANC media, which includes all 6C/Colon 1B media plus 100 ng/mL human FGF-10 (PeproTech, cat. 100-26), 500 nM SB-431542 (Selleckchem, cat. S1067), and 10 nM gastrin (Tocris Bioscience, cat. 3006). […]

[1] = curve of first compound, second compound 0.00316 µM
[2] = curve of first compound, second compound 0.01 µM
[3] = curve of first compound, second compound 0.0316 µM
[4] = curve of first compound, second compound 0.1 µM
[5] = curve of first compound, second compound 0.316 µM
[6] = curve of first compound, second compound 1 µM
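Further: spheroids exposed to compound for seven days before readout.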
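Wherever IC50 is given: luminescence signal used as a proxy for viable cells.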

IC50 [1]: < 0.949 nM
IC50 [2]: < 0.949 nM
IC50 [3]: < 0.949 nM
IC50 [4]: < 0.949 nM
IC50 [5]: < 0.949 nM
IC50 [6]: < 0.949 nM
SMILES: CCc1c2c(nc3ccc(O)cc13)-c1cc3c(c(=O)n1C2)COC(=O)[C@]3(O)CC + C=CC(=O)N1CCN(c2nc(OCC3CCCN3C)nc3c(F)c(-c4nc(N)cc(C)c4C(F)(F)F)c(Cl)cc23)C(C)C1
viability, T/C (second compound 0.00316 µM, first compound 0.000949 µM): 17.1%
viability, T/C (second compound 0.00316 µM, first compound 0.003 µM): 14.7%
viability, T/C (second compound 0.00316 µM, first compound 0.00949 µM): 15%
viability, T/C (second compound 0.00316 µM, first compound 0.03 µM): 12.2%
viability, T/C (second compound 0.00316 µM, first compound 0.0949 µM): 7.62%
viability, T/C (second compound 0.00316 µM, first compound 0.3 µM): 4.2%
viability, T/C (second compound 0.01 µM, first compound 0.000949 µM): 18%
viability, T/C (second compound 0.01 µM, first compound 0.003 µM): 13.9%
viability, T/C (second compound 0.01 µM, first compound 0.00949 µM): 12.2%
viability, T/C (second compound 0.01 µM, first compound 0.03 µM): 10.3%
viability, T/C (second compound 0.01 µM, first compound 0.0949 µM): 6.26%
viability, T/C (second compound 0.01 µM, first compound 0.3 µM): 3.82%
viability, T/C (second compound 0.0316 µM, first compound 0.000949 µM): 14.9%
viability, T/C (second compound 0.0316 µM, first compound 0.003 µM): 11.9%
viability, T/C (second compound 0.0316 µM, first compound 0.00949 µM): 14%
viability, T/C (second compound 0.0316 µM, first compound 0.03 µM): 8.57%
viability, T/C (second compound 0.0316 µM, first compound 0.0949 µM): 6.15%
viability, T/C (second compound 0.0316 µM, first compound 0.3 µM): 3.69%
viability, T/C (second compound 0.1 µM, first compound 0.000949 µM): 13.6%
viability, T/C (second compound 0.1 µM, first compound 0.003 µM): 12.4%
viability, T/C (second compound 0.1 µM, first compound 0.00949 µM): 9.96%
viability, T/C (second compound 0.1 µM, first compound 0.03 µM): 9.55%
viability, T/C (second compound 0.1 µM, first compound 0.0949 µM): 6.17%
viability, T/C (second compound 0.1 µM, first compound 0.3 µM): 2.99%
viability, T/C (second compound 0.316 µM, first compound 0.000949 µM): 12.7%
viability, T/C (second compound 0.316 µM, first compound 0.003 µM): 12.2%
viability, T/C (second compound 0.316 µM, first compound 0.00949 µM): 11.6%
viability, T/C (second compound 0.316 µM, first compound 0.03 µM): 9.06%
viability, T/C (second compound 0.316 µM, first compound 0.0949 µM): 6.73%
viability, T/C (second compound 0.316 µM, first compound 0.3 µM): 3.59%
viability, T/C (second compound 1 µM, first compound 0.000949 µM): 13.1%
viability, T/C (second compound 1 µM, first compound 0.003 µM): 13.5%
viability, T/C (second compound 1 µM, first compound 0.00949 µM): 12.9%
viability, T/C (second compound 1 µM, first compound 0.03 µM): 9.98%
viability, T/C (second compound 1 µM, first compound 0.0949 µM): 8.33%
viability, T/C (second compound 1 µM, first compound 0.3 µM): 4.38%

IC50 [1]: < 31.6 nM
IC50 [2]: < 31.6 nM
IC50 [3]: < 31.6 nM
IC50 [4]: < 31.6 nM
IC50 [5]: < 31.6 nM
IC50 [6]: < 31.6 nM
SMILES: CC(=O)OC12COC1CC(O)C1(C)C(=O)C(O)C3=C(C)C(OC(=O)C(O)C(NC(=O)OC(C)(C)C)c4ccccc4)CC(O)(C(OC(=O)c4ccccc4)C21)C3(C)C (stereo unspecified) + C=CC(=O)N1CCN(c2nc(OCC3CCCN3C)nc3c(F)c(-c4nc(N)cc(C)c4C(F)(F)F)c(Cl)cc23)C(C)C1
viability, T/C (second compound 0.00316 µM, first compound 0.0316 µM): 14%
viability, T/C (second compound 0.00316 µM, first compound 0.1 µM): 12.6%
viability, T/C (second compound 0.00316 µM, first compound 0.316 µM): 13.9%
viability, T/C (second compound 0.00316 µM, first compound 1 µM): 14.3%
viability, T/C (second compound 0.00316 µM, first compound 3.16 µM): 15.8%
viability, T/C (second compound 0.00316 µM, first compound 10 µM): 12%
viability, T/C (second compound 0.01 µM, first compound 0.0316 µM): 11.3%
viability, T/C (second compound 0.01 µM, first compound 0.1 µM): 11.3%
viability, T/C (second compound 0.01 µM, first compound 0.316 µM): 9.97%
viability, T/C (second compound 0.01 µM, first compound 1 µM): 11.6%
viability, T/C (second compound 0.01 µM, first compound 3.16 µM): 12.5%
viability, T/C (second compound 0.01 µM, first compound 10 µM): 9.61%
viability, T/C (second compound 0.0316 µM, first compound 0.0316 µM): 13.7%
viability, T/C (second compound 0.0316 µM, first compound 0.1 µM): 11.6%
viability, T/C (second compound 0.0316 µM, first compound 0.316 µM): 10.8%
viability, T/C (second compound 0.0316 µM, first compound 1 µM): 11.4%
viability, T/C (second compound 0.0316 µM, first compound 3.16 µM): 14.5%
viability, T/C (second compound 0.0316 µM, first compound 10 µM): 9.14%
viability, T/C (second compound 0.1 µM, first compound 0.0316 µM): 11.1%
viability, T/C (second compound 0.1 µM, first compound 0.1 µM): 10.8%
viability, T/C (second compound 0.1 µM, first compound 0.316 µM): 10.9%
viability, T/C (second compound 0.1 µM, first compound 1 µM): 11.5%
viability, T/C (second compound 0.1 µM, first compound 3.16 µM): 13.6%
viability, T/C (second compound 0.1 µM, first compound 10 µM): 8.85%
viability, T/C (second compound 0.316 µM, first compound 0.0316 µM): 11.9%
viability, T/C (second compound 0.316 µM, first compound 0.1 µM): 10.7%
viability, T/C (second compound 0.316 µM, first compound 0.316 µM): 11.5%
viability, T/C (second compound 0.316 µM, first compound 1 µM): 12.2%
viability, T/C (second compound 0.316 µM, first compound 3.16 µM): 14.7%
viability, T/C (second compound 0.316 µM, first compound 10 µM): 9.3%
viability, T/C (second compound 1 µM, first compound 0.0316 µM): 12.6%
viability, T/C (second compound 1 µM, first compound 0.1 µM): 10.2%
viability, T/C (second compound 1 µM, first compound 0.316 µM): 12.4%
viability, T/C (second compound 1 µM, first compound 1 µM): 14.5%
viability, T/C (second compound 1 µM, first compound 3.16 µM): 14.7%
viability, T/C (second compound 1 µM, first compound 10 µM): 9.86%

IC50 (curve of compound): > 1000 nM
SMILES: CCN1CCN(Cc2ccc(Nc3ncc(F)c(-c4cc(F)c5nc(C)n(C(C)C)c5c4)n3)nc2)CC1
viability, T/C (compound 0.00316 µM): 94.3% [middle of 4 runs]
viability, T/C (compound 0.01 µM): 85% [middle of 4 runs]
viability, T/C (compound 0.0316 µM): 82.3% [middle of 4 runs]
viability, T/C (compound 0.1 µM): 80.7% [middle of 4 runs]
viability, T/C (compound 0.316 µM): 75.6% [middle of 4 runs]
viability, T/C (compound 1 µM): 67% [middle of 4 runs]
